Source: patent US9169209B2, “Compounds and compositions for the inhibition of NAMPT” (FORMA TM, LLC, priority 2011, dated 2015)

What was measured:
[1] = system: A2780 cells; assay: In-Vitro Cell Proliferation Assay (SRB, 72 hours); assay type: cell-based; conditions: Homo sapiens, A2780, 72 h, A2780 cells, 72 hours, sulforhodamine B; read-out: A2780 IC50
Procedure: After overnight incubation at 37° C. and 5% CO2, the compound titrations were performed in a separate dilution plate by serially diluting the compounds in DMSO to make a 1000× stock. The compounds were then further diluted to 10× final concentration in culture media, whereupon 20 μL of each dilution was added to the plated cells with controls (e.g. DMSO and blank) to make a final volume of 200 μL. The final DMSO concentration in each well was 0.1%. The plates were then incubated for 72 hours at 37° C. in a 5% CO2 incubator. The number of viable cells was then assessed using sulforhodamine B (SRB) assay. Cells were fixed at 4° C. for 1 hour with the addition of 50 μL 30% trichloroacetic acid (TCA) to make a final concentration of 6% TCA. The plates were washed four times with H2O and allowed to dry for at least 1 hour, whereupon 100 μL of a 4% SRB in 1% acetic acid solution was added to each well and incubated at room temperature for at least 30 minutes. The plates were then washed three times with 1% acetic acid, dried, and treated with 100 μL of 10 mM Tris-Base solution. The plates were then read in a microplate reader at an absorbance of 570 nm. Background was generated on a separate plate with media only.
First, the signals from the background plate are averaged and then the background was subtracted from the test plates.
wherein x denotes the average signal of the compound-treated cells and y denotes the average signal of the DMSO-treated cells.
wherein X denotes the compound concentration 1, Y denotes the compound concentration 2, XX denotes the % inhibition at compound concentration 1 (X), and YY denotes the % inhibition at compound concentration 2 (Y).

[2] = target: NAMPT (Homo sapiens (Human), UniProt P43490); assay: Biochemical Inhibition Assay (NAMPT enzymatic reaction, NMN quantified by mass spectrometry); conditions: recombinant His-tagged NAMPT, 33 nM; 1 μM NAM; read-out: Biochem IC50
Procedure: Recombinant His-tagged NAMPT was produced in E. coli cells, purified over a Ni column, and further purified over a size-exclusion column by XTAL Biostructures.
The NAMPT enzymatic reactions were carried out in Buffer A (50 mM Hepes pH 7.5, 50 mM NaCl, 5 mM MgCl2, and 1 mM THP) in 96-well V-bottom plates. The compound titrations were performed in a separate dilution plate by serially diluting the compounds in DMSO to make a 100× stock. […] The compound and enzyme mix was incubated for 15 minutes at room temperature, then 10 μL of 10× substrate and co-factors in Buffer A were added to the test well to make a final concentration of 1 μM NAM, 100 μM 5-Phospho-D-ribose 1-diphosphate (PRPP), and 2.5 mM Adenosine 5′-triphosphate (ATP). The reaction was allowed to proceed for 30 minutes at room temperature, then was quenched with the addition of 11 μL of a solution of formic acid and L-Cystathionine to make a final concentration of 1% formic acid and 10 μM L-Cystathionine. Background and signal strength was determined by addition (or non-addition) of a serial dilution of NMN to a pre-quenched enzyme and cofactor mix.
A mass spectrometry-based assay was used to measure the NAMPT reaction product (NMN) and the internal control (L-Cystathionine). NMN and L-Cystathionine were detected using the services of Biocius Lifesciences with the RapidFire system. In short, the NMN and L-Cystathionine are bound to a graphitic carbon cartridge in 0.1% formic acid, eluted in 30% acetonitrile buffer, and injected into a Sciex 4000 mass spectrometer. The components of the sample were ionized with electrospray ionization and the positive ions were detected. […] The fragments are quantified and the analyzed by the following method.
First the NMN signal is normalized to the L-Cystathionine signal by dividing the NMN signal by the L-Cystathionine signal for each well. The signal from the background wells are averaged and subtracted from the test plates.
Wherein x denotes the average signal of the compound treated wells and y denotes the average signal of the DMSO treated wells.
IC50s are Determined Using Excel and this Formula.
Wherein X denotes the compound concentration 1, Y denotes the compound concentration 2, XX denotes the % inhibition at compound concentration 1 (X), and YY denotes the % inhibition at compound concentration 2 (Y).

Sequence of NAMPT (P43490 whole entry): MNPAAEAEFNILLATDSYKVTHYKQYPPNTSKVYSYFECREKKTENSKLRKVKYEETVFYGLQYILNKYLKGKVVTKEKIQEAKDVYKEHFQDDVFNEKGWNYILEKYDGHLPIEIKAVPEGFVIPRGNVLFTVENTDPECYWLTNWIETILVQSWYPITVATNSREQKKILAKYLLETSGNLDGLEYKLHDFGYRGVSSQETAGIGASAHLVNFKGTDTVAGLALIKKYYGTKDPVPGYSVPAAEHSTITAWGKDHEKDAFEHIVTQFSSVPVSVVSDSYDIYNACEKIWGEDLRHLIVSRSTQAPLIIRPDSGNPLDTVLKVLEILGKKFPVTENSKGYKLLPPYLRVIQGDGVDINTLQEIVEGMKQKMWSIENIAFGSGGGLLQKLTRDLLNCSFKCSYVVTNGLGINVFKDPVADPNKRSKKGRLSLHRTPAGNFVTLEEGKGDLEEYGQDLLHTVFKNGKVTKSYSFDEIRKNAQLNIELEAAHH

| SMILES | IC50 [1] | IC50 [2] |
| --- | --- | --- |
| COc1cc(C(F)(F)F)ccc1S(=O)(=O)c1ccc(NC(=O)/C=C/c2cccnc2)cc1 [(2E)-N-(4-{[2-methoxy-4-(trifluoromethyl)benzene]sulfonyl}phenyl)-3-(pyridin-3-yl)prop-2-enamide] | 118 nM | 59.6 nM |
| CCCOc1ccc(S(=O)(=O)c2ccc(NC(=O)/C=C/c3cccnc3)cc2)cc1Cl [(2E)-N-{4-[(3-chloro-4-propoxybenzene)sulfonyl]phenyl}-3-(pyridin-3-yl)prop-2-enamide] | 100 to 1000 nM | 5.6 nM |
| COc1ccc(F)cc1S(=O)(=O)c1ccc(NC(=O)/C=C/c2cccnc2)cc1 [(2E)-N-{4-[(5-fluoro-2-methoxybenzene)sulfonyl]phenyl}-3-(pyridin-3-yl)prop-2-enamide] | 20.5 nM | 14.5 nM |
| O=C(/C=C/c1cccnc1)Nc1ccc(S(=O)(=O)c2cccc3cccnc23)cc1 [(2E)-3-(pyridin-3-yl)-N-[4-(quinoline-8-sulfonyl)phenyl]prop-2-enamide] | 12.2 nM | 3.6 nM |
| COc1c(C)cc(S(=O)(=O)c2ccc(NC(=O)/C=C/c3cccnc3)cc2)cc1C [(2E)-N-{4-[(4-methoxy-3,5-dimethylbenzene)sulfonyl]phenyl}-3-(pyridin-3-yl)prop-2-enamide] | 49.5 nM | 6.7 nM |
| O=C(/C=C/c1cccnc1)Nc1ccc(S(=O)(=O)c2ccc(-c3ccccc3)cc2)cc1 [(2E)-N-{4-[(4-phenylbenzene)sulfonyl]phenyl}-3-(pyridin-3-yl)prop-2-enamide] | 100 to 1000 nM | 4.5 nM |
| Cc1cc(C)cc(S(=O)(=O)c2ccc(NC(=O)/C=C/c3cccnc3)cc2)c1 [(2E)-N-{4-[(3,5-dimethylbenzene)sulfonyl]phenyl}-3-(pyridin-3-yl)prop-2-enamide] | 95.4 nM | 17.1 nM |
| O=C(/C=C/c1cccnc1)Nc1ccc(S(=O)(=O)c2ccc(C(F)(F)F)c(Cl)c2)cc1 [(2E)-N-(4-{[3-chloro-4-(trifluoromethyl)benzene]sulfonyl}phenyl)-3-(pyridin-3-yl)prop-2-enamide] | 100 to 1000 nM | 43.4 nM |
| COc1cc(F)cc(S(=O)(=O)c2ccc(NC(=O)/C=C/c3cccnc3)cc2)c1 [(2E)-N-{4-[(3-fluoro-5-methoxybenzene)sulfonyl]phenyl}-3-(pyridin-3-yl)prop-2-enamide] | 68.1 nM | 3.2 nM |
| O=C(/C=C/c1cccnc1)Nc1ccc(S(=O)(=O)c2cccc(-c3ccccc3)c2)cc1 [(2E)-N-{4-[(3-phenylbenzene)sulfonyl]phenyl}-3-(pyridin-3-yl)prop-2-enamide] | 100 to 1000 nM | 25.4 nM |
| O=C(/C=C/c1cccnc1)Nc1ccc(S(=O)(=O)c2cc(Cl)ccc2Cl)cc1 [(2E)-N-{4-[(2,5-dichlorobenzene)sulfonyl]phenyl}-3-(pyridin-3-yl)prop-2-enamide] | 100 to 1000 nM | 22.4 nM |
| O=C(/C=C/c1cccnc1)Nc1ccc(S(=O)(=O)c2cccc3c2OCO3)cc1 [(2E)-N-[4-(2H-1,3-benzodioxole-4-sulfonyl)phenyl]-3-(pyridin-3-yl)prop-2-enamide] | 75.1 nM | 16.1 nM |
| O=C(/C=C/c1cccnc1)Nc1ccc(S(=O)(=O)c2ccc(C(F)(F)F)cc2)cc1 [(2E)-3-(pyridin-3-yl)-N-(4-{[4-(trifluoromethyl)benzene]sulfonyl}phenyl)prop-2-enamide] | 100 to 1000 nM | 56.5 nM |
| COc1ccc(C)cc1S(=O)(=O)c1ccc(NC(=O)/C=C/c2cccnc2)cc1 [(2E)-N-{4-[(2-methoxy-5-methylbenzene)sulfonyl]phenyl}-3-(pyridin-3-yl)prop-2-enamide] | 7.3 nM | 1.8 nM |
| O=C(/C=C/c1cccnc1)Nc1ccc(S(=O)(=O)c2ccccc2OC(F)(F)F)cc1 [(2E)-3-(pyridin-3-yl)-N-(4-{[2-(trifluoromethoxy)benzene]sulfonyl}phenyl)prop-2-enamide] | 15.7 nM | 3.6 nM |
